*: point of attachment. Palmitoyl = CCCCCCCCCCCCCCCC(=O)*
Assay: MRI r1 relaxivity measurement, 1.5 Tesla
Format: physicochemical
Details: 500 μM, 1.5 T
Procedure: An MR relaxometry phantom was built by fixing 5 mm NMR sample tubes containing PA samples at a concentration of 500 μM and pH values 4 and 10 in a 600 ml beaker filled with deionized water. The samples also contained 150 mM NaCl and 2.2 mM CaCl2. The phantom was scanned on a 1.5 Tesla Signa Excite MRI scanner using an 8-channel phased-array head coil (GE Healthcare, Milwaukee, Wis., USA). R relaxometry data were acquired using an Inversion Recovery Fast Spin-Echo (IR-FSE) sequence with the following parameters: inversion time TI=50/100/200/400/600/800/1200/1600/3200 ms; repetition time TR=8000 ms; echo time TE=11 ms; echo train length=10; 90° flip angle; 100×100 mm^2 field-of-view (FOV); 0.5 mm in-plane resolution; 2 mm slice thickness; single coronal slice placed at the center of the phantom. Sample longitudinal relaxation rates (R1) were calculated by fitting the MR signal intensities observed at different TIs (S(TI)) to a three parameter model [Lu et al., MRM 2004]:
S(TI)=|S0×(1−C×exp(−TI×R1))|
Where S0 is the equilibrium signal, C is a constant accounting for imperfect inversion of magnetization. The r1 relaxivity was calculated as the slope in the linear relationship between sample concentrations and their R1 relaxation rates.

## Palmitoyl-IAAAEEEEK(DO3A:Gd)-NH2 (Palmitoyl-IAAAEEEEK(DO3A)-NH2; also: DO3A chelates Gd) [PA5]
pH 4 (nanofibers)
  relaxivity of water protons: 8.3 mM⁻¹ s⁻¹
pH 10 (spherical micelles)
  relaxivity of water protons: 6.6 mM⁻¹ s⁻¹
